From patent US20250270222A1, “AP2 ASSOCIATED KINASE 1 INHIBITORS AND USES THEREOF” (Satellos Bioscience Inc., priority 2023, published 2025)

Target: AAK1 (amino acids T27-A365) (Homo sapiens (Human), UniProt Q2M2I8)
Assay: AAK1 pSENs assay
Format: biochemical
Conditions: ratio of AAK1 pSENs activity to GAK pSENs activity
Procedure: The recombinant proteins were independently expressed in Esherichia coli BL21(DE3) cells cultured in Luria-Bertani (LB) medium until OD600 reached 0.6-0.8, then cooled to 15° C., and supplemented with 0.5 mM isopropyl 1-thio-D-galactopyranoside (IPTG) induce protein expression 16 h. Cells were harvested and resuspended in lysis buffer (50 mM HEPES pH 7.5, 500 mM NaCl, 5 mM imidazole, 5% glycerol, 0.5 mM Tris (2-carboxyethyl) phosphine (TCEP), cOmplete Protease Inhibitor Tablet (Roche)) and lysed by microfluidics high pressure homogenizer (UH-06, Union-Biotech). Proteins were purified using Ni-Affinity chromatography (His FF column, Bestchrom) and eluted stepwise in binding buffer with 20-300 mM imidazole. Removal of the hexahistidine tag was performed at 4° C. overnight using recombinant TEV protease and reacted with BirA to obtain the corresponding biotinylated-AAK1. BIKE or GAK proteins. Further separated in the reverse Strep column (Strep-Tactin® XT, IBA). The Biotin elution sample was collected containing untagged biotinylated protein was then purified by Ion-exchange chromatography (Mono Q 10/100 GL, Cytiva) and Size-exclusion chromatography (HiLoad 16/600 Superdex 200 pg, Cytiva). The pure protein was stored in a storage buffer 50 mM HEPES (pH 7.5), 300 mM NaCl, 5% glycerol at −80° C. Protein were characterized by SDS-PAGE. LC-MS and aSEC.
This example describes one illustrative method for determining the IC50 of the compounds of the present invention against AAK1 (amino acids T27-A365). AAK1 protein was dissolved at 20 nM in 1× enzyme solution (50 mM HEPES pH7.5, 10 mM MgCl2, 1 mM DTT, 1% glycerol, 0.5 mM EGTA, 0.01% Briji35, 0.02% BSA) and 12.5 ul was incubated with 250 nl DMSO or 250 nl compound in DMSO at 25° C. for 15 min. The reaction was started by addition of 12.5 ul of 30 uM AQT0759 (Assayquant, CSKS-AQT0759B) and 70 uM ATP which were diluted in 1× substrate dilution buffer (50 mM HEPES pH7.5, 10 mM MgCl2, 1 mM DTT, 1% glycerol, 0.5 mM EGTA, 0.01% Briji35).

AAK1 (amino acids T27-A365), sequence (Q2M2I8 27-365): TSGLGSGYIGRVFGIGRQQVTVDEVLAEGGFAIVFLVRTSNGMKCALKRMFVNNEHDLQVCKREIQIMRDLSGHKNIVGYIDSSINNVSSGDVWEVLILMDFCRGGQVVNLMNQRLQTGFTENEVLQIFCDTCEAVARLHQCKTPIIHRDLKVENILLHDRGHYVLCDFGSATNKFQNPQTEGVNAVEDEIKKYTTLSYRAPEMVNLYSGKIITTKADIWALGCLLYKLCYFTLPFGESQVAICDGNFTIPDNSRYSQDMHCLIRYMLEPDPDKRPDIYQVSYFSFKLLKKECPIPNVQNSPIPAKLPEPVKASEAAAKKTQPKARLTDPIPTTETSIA

AAK1:GAK pSENs Selectivity | Compound
A (A: ≤0.015) | [2H]C([2H])([2H])N1C[C@@H](OC(=O)N2CCN(c3nc4c(-c5cc(OC)cnc5OC5CC5)cnn4cc3F)CC2)CC1=O [Compound I-117, [(3S)-5-oxo-1-(trideuteriomethyl)pyrrolidin-3-yl]4-[3-[2-(cyclopropoxy)-5-methoxy-3-pyridyl]-6-fluoro-pyrazolo[1,5-a]pyrimidin-5-yl]piperazine-1-carboxylate]
C (C: 0.076-0.15) | CC(C)(C)OC(=O)NCCNc1nc2c(-c3cccnc3OC3CC3)cnn2cc1F [Compound I-124, tert-butyl N-[2-[[3-[2-(cyclopropoxy)-3-pyridyl]-6-fluoro-pyrazolo[1,5-a]pyrimidin-5-yl]amino]ethyl]carbamate]
A (A: ≤0.015) | COc1cnc(OC2CC2)c(-c2cnn3ccc(N4CCN(C(=O)O[C@H]5CC(=O)N(C)C5)CC4)nc23)c1 [Compound I-87]
A (A: ≤0.015) | C[C@@]1(OC(=O)N2CCN(c3ccn4ncc(-c5cccnc5OC5CC5)c4n3)CC2)CCN(CC(N)=O)C1 [Compound I-51, (R)-1-(2-amino-2-oxoethyl)-3-(methylpyrrolidin-3-yl)-4-(3-(2-cyclopropoxypyridin-3-yl)pyrazolo[1,5-a]pyrimidin-5-yl)piperazine-1-carboxylate]
B (B: 0.016-0.075) | CN(CCNc1ccn2ncc(-c3cccnc3OC3CC3)c2n1)C(=O)O[C@H]1CO[C@H]2OCC[C@H]21 [Compound I-71, (3R,3aS,6aR)-hexahydrofuro[2,3-b]furan-3-yl (2-((3-(2-cyclopropoxypyridin-3-yl)pyrazolo[1,5-a]pyrimidin-5-yl)amino)ethyl)(methyl)carbamate]
B (B: 0.016-0.075) | C#C[C@@]1(OC(=O)N2CCN(c3ccn4ncc(-c5cccnc5OC5CC5)c4n3)CC2)CCNC1 [Compound I-16, [(3S)-3-Ethynylpyrrolidin-3-yl]-4-[3-[2-(cyclopropoxy)-3-pyridyl]pyrazolo[1,5-a]pyrimidin-5-yl]piperazine-1-carboxylate]
B (B: 0.016-0.075) | COc1ncccc1-c1cnn2ccc(NCCN(C)C(=O)O[C@H]3CO[C@H]4OCC[C@H]43)nc12 [Compound I-70, (3R,3aS,6aR)-hexahydrofuro[2,3-b]furan-3-yl (2-((3-(2-methoxypyridin-3-yl)pyrazolo[1,5-a]pyrimidin-5-yl)amino)ethyl)(methyl)carbamate]
0.0083 | COc1ncccc1-c1cnn2ccc(N3CCN(C(=O)OC4(C)COC4)CC3)nc12 [RC-1, (3-methyloxetan-3-yl)-4-[3-(2-methoxy-3-pyridyl)pyrazolo[1,5-a]pyrimidin-5-yl]piperazine-1-carboxylate, reference compound]
C (C: 0.076-0.15) | CN1C[C@@H](OC(=O)N2CCN(c3ccn4ncc(-c5cccnc5O)c4n3)CC2)CC1=O [Compound I-98, [(3S)-1-methyl-5-oxo-pyrrolidin-3-yl]-4-[3-(2-hydroxy-3-pyridyl)pyrazolo[1,5-a]pyrimidin-5-yl]piperazine-1-carboxylate]
B (B: 0.016-0.075) | CN(CCNc1ccn2ncc(-c3cccnc3OC3CC3)c2n1)C(=O)O[C@]1(C)CCNC1 [Compound I-61, (R)-3-methylpyrrolidin-3-yl (2-((3-(2-cyclopropoxypyridin-3-yl)pyrazolo[1,5-a]pyrimidin-5-yl)amino)ethyl)(methyl)carbamate]
C (C: 0.076-0.15) | CC(C)(C)OC(=O)NCCNc1ccc2ncc(-c3cccnc3OC3CC3)n2n1 [Compound I-129, tert-butyl N-[2-[[3-[2-(cyclopropoxy)-3-pyridyl]imidazo[1,2-b]pyridazin-6-yl]amino]ethyl]carbamate]
B (B: 0.016-0.075) | CC1(OC(=O)N2CCN(c3ccn4ncc(-c5cccnc5OC5CC5)c4n3)CC2)CCNC1 (centres unmarked) [Compound I-13-5, (3-Methylpyrrolidin-3-yl) 4-[3-[2-(cyclopropoxy)-3-pyridyl]pyrazolo [1,5-a]pyrimidin-5-yl]piperazine-1-carboxylate]
B (B: 0.016-0.075) | CN1C[C@@H](OC(=O)N2CCN(c3ccn4ncc(-c5cc(OC(F)(F)F)cnc5OC5CC5)c4n3)CC2)CC1=O [Compound I-88]
B (B: 0.016-0.075) | CC(C)Oc1ncccc1-c1cnn2ccc(N3CCN(C(=O)OC4(C)CCNC4)CC3)nc12 (centres unmarked) [Compound I-21-5, (3-Methylpyrrolidin-3-yl)-4-[3-(2-isopropoxy-3-pyridyl)pyrazolo[1,5-a]pyrimidin-5-yl]piperazine-1-carboxylate]
A (A: ≤0.015) | O=C1C[C@H](OC(=O)N2CCN(c3ccn4ncc(-c5cccnc5OC5CC5)c4n3)CC2)CN1CCOCc1ccccc1 [Compound I-37, [(3S)-1-(2-benzyloxyethyl)-5-oxo-pyrrolidin-3-yl]-4-[3-[2-(cyclopropoxy)-3-pyridyl]pyrazolo[1,5-a]pyrimidin-5-yl]piperazine-1-carboxylate]
A (A: ≤0.015) | CC(C)(C)OC(=O)N1CCN(c2ccn3ncc(-c4cccnc4O)c3n2)CC1 [Compound I-102, tert-butyl 4-[3-(2-hydroxy-3-pyridyl)pyrazolo[1,5-a]pyrimidin-5-yl]piperazine-1-carboxylate]
B (B: 0.016-0.075) | CC(C)Oc1ncccc1-c1cnn2ccc(N3CCN(C(=O)O[C@]4(C)CCNC4)CC3)nc12 [Compound I-22, [(3R)-3-methylpyrrolidin-3-yl]4-[3-(2-isopropoxy-3-pyridyl)pyrazolo[1,5-a]pyrimidin-5-yl]piperazine-1-carboxylate]

Compound | AAK1:GAK pSENs Selectivity
COc1ncccc1-c1cnn2ccc(N3CCN(C(=O)OC4(C)CCNC4)CC3)nc12 (centres unmarked) [Compound I-8, (3-Methylpyrrolidin-3-yl)-4-[3-(2-methoxy-3-pyridyl)pyrazolo[1,5-a]pyrimidin-5-yl]piperazine-1-carboxylate] | B (B: 0.016-0.075)
CN1C[C@H](OC(=O)N2CCN(c3ccn4ncc(-c5cccnc5OC5CC5)c4n3)CC2)CC1=O [Compound I-94] | A (A: ≤0.015)
CN(CCNc1ccn2ncc(-c3cccnc3OC3CC3)c2n1)C(=O)OC(C)(C)C [Compound I-12, tert-butyl N-[2-[[3-[2-(Cyclopropoxy)-3-pyridyl]pyrazolo[1,5-a]pyrimidin-5-yl]amino]ethyl]-N-methyl-carbamate] | A (A: ≤0.015)
O=C1C[C@H](OC(=O)N2CCN(c3ccn4ncc(-c5cccnc5NC5CC5)c4n3)CC2)CN1 [Compound I-45, [(3S)-5-Oxopyrrolidin-3-yl]4-[3-[2-(cyclopropylamino)-3-pyridyl]pyrazolo[1,5-a]pyrimidin-5-yl]piperazine-1-carboxylate] | E (E: >1.00)
CN(CCN1C[C@@H](OC(=O)N2CCN(c3ccn4ncc(-c5cccnc5OC5CC5)c4n3)CC2)CC1=O)C(=O)OC(C)(C)C [Compound I-35, (S)-1-(2-((tert-butoxycarbonyl)(methyl)amino)ethyl)-5-oxopyrrolidin-3-yl-4-(3-(2-cyclopropoxypyridin-3-yl)pyrazolo[1,5-a]pyrimidin-5-yl)piperazine-1-carboxylate] | B (B: 0.016-0.075)
CC1(OC(=O)N2CCN(c3ccn4ncc(-c5cccc(C(N)=O)c5)c4n3)CC2)COC1 [Compound I-4, (3-methyloxetan-3-yl)-4-[3-(3-carbamoylphenyl)pyrazolo[1,5-a]pyrimidin-5-yl]piperazine-1-carboxylate] | C (C: 0.076-0.15)
CC1(OC(=O)N2CCN(c3ccn4ncc(-c5ccc(C(N)=O)cc5)c4n3)CC2)COC1 [Compound I-3, (3-methyloxetan-3-yl)-4-[3-(4-carbamoylphenyl)pyrazolo[1,5-a]pyrimidin-5-yl]piperazine-1-carboxylate] | B (B: 0.016-0.075)
COc1ncccc1-c1cnn2ccc(N3CCN(C(=O)OC4CCNC4)CC3)nc12 (centres unmarked) [Compound I-5, Pyrrolidin-3-yl4-[3-(2-methoxy-3-pyridyl)pyrazolo[1,5-a]pyrimidin-5-yl]piperazine-1-carboxylate] | B (B: 0.016-0.075)
CC(C)(C)OC(=O)N1CCC(N2C[C@H](OC(=O)N3CCN(c4ccn5ncc(-c6cccnc6OC6CC6)c5n4)CC3)CC2=O)CC1 [Compound I-31, (R)-1-(1-(tert-Butoxycarbonyl)piperidin-4-yl)-5-oxopyrrolidin-3-yl 4-(3-(2-cyclopropoxypyridin-3-yl)pyrazolo[1,5-a]pyrimidin-5-yl)piperazine-1-carboxylate] | D (D: 0.16-1.00)
